According to patent US20230167088A1, “1-PYRAZINYLPYRAZOLYL-3-OXYALKYL ACIDS AND THEIR DERIVATIVES, AND THEIR USE FOR CONTROL OF UNDESIRED PLANT GROWTH” (BAYER AKTIENGESELLSCHAFT, priority 2020, published 2023):

Assays:
POLCO [1] = experiment: Herbicidal pre-emergence action 2a (greenhouse pots, visual scoring); assay type: in vivo, Polygonum convolvulus; conditions: dosage 320 g/ha, visual scoring after about 3 weeks vs untreated controls
Summary of the method: (§1)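 Sow, cover with soil, spray soil surface (WP or EC in water, 0.5% additive, 600 l/ha; 320 and/or 80 g/ha), grow in greenhouse ~3 weeks, score visually in % against untreated controls.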

PHBPU = experiment: Herbicidal post-emergence action 1a (greenhouse pots, visual rating); assay type: in vivo, Pharbitis purpurea; conditions: visual rating about 3 weeks after treatment
Summary of the method: (§2)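 Weeds and crops sown in sandy loam in greenhouse pots were sprayed post-emergence at the one-leaf stage (2–3 weeks after sowing) with WP or EC formulations plus 0.5% additive at 600 l/ha water, 320 and/or 80 g/ha. About 3 weeks later damage was rated visually against untreated controls (0% = no effect, 100% = dead).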

POLCO [2] = experiment: as above; assay type: in vivo, Polygonum convolvulus; conditions: visual rating about 3 weeks after treatment
Summary of the method: as §2

MATIN [3] = experiment: Herbicidal pre-emergence action 2b (doubly sown, 1280 g/ha); assay type: in vivo, Matricaria inodora; conditions: doubly sown pots, dosage 1280 g/ha, visual scoring after about 3 weeks
Summary of the method: (§3)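 Seeds are placed in sandy loam and covered, then the formulated compound is applied to the covering soil in water equivalent to 600 litres per hectare with 0.5% additive. Pots stay in the greenhouse under good growth conditions. Activity is rated visually as a percentage of untreated controls after about three weeks.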

AMARE = experiment: Herbicidal post-emergence action 1a (greenhouse pots, visual rating); assay type: in vivo, Amaranthus retroflexus; conditions: visual rating about 3 weeks after treatment
Summary of the method: as §2

VERPE [4] = experiment: Herbicidal pre-emergence action 2a (greenhouse pots, visual scoring); assay type: in vivo, Veronica persica; conditions: dosage 320 g/ha, visual scoring after about 3 weeks vs untreated controls
Summary of the method: as §1

SETVI = experiment: as above; assay type: in vivo, Setaria viridis; conditions: dosage 320 g/ha, visual scoring after about 3 weeks vs untreated controls
Summary of the method: as §1

MATIN [5] = experiment: as above; assay type: in vivo, Matricaria inodora; conditions: dosage 320 g/ha, visual scoring after about 3 weeks vs untreated controls
Summary of the method: as §1

VERPE [6] = experiment: Herbicidal post-emergence action 1a (greenhouse pots, visual rating); assay type: in vivo, Veronica persica; conditions: visual rating about 3 weeks after treatment
Summary of the method: as §2

POAAN = experiment: Herbicidal pre-emergence action 2b (doubly sown, 1280 g/ha); assay type: in vivo, Poa annua; conditions: doubly sown pots, dosage 1280 g/ha, visual scoring after about 3 weeks
Summary of the method: as §3

STEME [7] = experiment: as above; assay type: in vivo, Stellaria media; conditions: doubly sown pots, dosage 1280 g/ha, visual scoring after about 3 weeks
Summary of the method: as §3

STEME [8] = experiment: Herbicidal post-emergence action 1b (twin sowing, 1280 g/ha); assay type: in vivo, Stellaria media; conditions: dosage 1280 g/ha, visual rating about 3 weeks after treatment
Summary of the method: (§4)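 Post-emergence foliar spray on one-leaf weeds grown two species per pot in sandy loam; ~3 weeks later, visual rating from 0% (as control) to 100% (plants died).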

MATIN [9] = experiment: Herbicidal post-emergence action 1a (greenhouse pots, visual rating); assay type: in vivo, Matricaria inodora; conditions: visual rating about 3 weeks after treatment
Summary of the method: as §2

ECHCG = experiment: Herbicidal post-emergence action 1b (twin sowing, 1280 g/ha); assay type: in vivo, Echinochloa crus-galli; conditions: dosage 1280 g/ha, visual rating about 3 weeks after treatment
Summary of the method: as §4

Compound	Pre-emergence action against POLCO in % (POLCO [1])	Post-emergence action against PHBPU in % (PHBPU; dosage 80 g/ha)	Post-emergence action against POLCO in % (POLCO [2]; dosage 320 g/ha)	Pre-emergence action at 1280 g/ha against MATIN in % (MATIN [3])	Post-emergence action against AMARE in % (AMARE; dosage 80 g/ha)	Post-emergence action against AMARE in % (AMARE; dosage 320 g/ha)	Pre-emergence action against VERPE in % (VERPE [4])	Pre-emergence action against SETVI in % (SETVI)	Pre-emergence action against MATIN in % (MATIN [5])	Post-emergence action against VERPE in % (VERPE [6]; dosage 320 g/ha)	Pre-emergence action at 1280 g/ha against POAAN in % (POAAN)	Pre-emergence action at 1280 g/ha against STEME in % (STEME [7])	Post-emergence action at 1280 g/ha against STEME in % (STEME [8])	Post-emergence action against VERPE in % (VERPE [6]; dosage 80 g/ha)	Post-emergence action against PHBPU in % (PHBPU; dosage 320 g/ha)	Post-emergence action against MATIN in % (MATIN [9]; dosage 320 g/ha)	Post-emergence action against POLCO in % (POLCO [2]; dosage 80 g/ha)	Post-emergence action against MATIN in % (MATIN [9]; dosage 80 g/ha)	Post-emergence action at 1280 g/ha against ECHCG in % (ECHCG)
CCOC(=O)COc1nn(-c2cnccn2)c(-c2ccc(F)nc2)c1Br [Example I-52, ethyl {[4-bromo-5-(6-fluoropyridin-3-yl)-1-(pyrazin-2-yl)-1H-pyrazol-3-yl]oxy}acetate]	80%	80%	80%	90%	90%	80%	90%	90%	90%	90%	100%	100%							
COC(=O)C(C)Oc1nn(-c2cnccn2)c(-c2ccnc(F)c2)c1Br (racemic) [Example I-10]				90%		80%		100%		90%	100%	100%	90%	80%					
COC(=O)COc1nn(-c2cnccn2)c(-c2ccc(F)c(F)c2)c1Br [Example I-15]		90%			80%	80%	100%	100%	100%	90%				90%	90%	80%			
COC(=O)COc1nn(-c2cnccn2)c(-c2cncc(F)c2)c1Br [Example I-07]	90%	90%	90%			80%	100%	100%	90%	90%				90%	90%	90%	80%	90%	
COC(=O)C(C)Oc1nn(-c2cnccn2)c(-c2ccc(F)c(F)c2)c1C#N (racemic) [Example I-22]	80%	80%	80%	90%	90%	90%		100%		90%	100%	100%	100%	80%	90%	80%			
COC(=O)C(C)Oc1nn(-c2cnccn2)c(-c2ccnc(F)c2)c1Cl (racemic) [Example I-05]				90%		80%	100%	90%		90%	100%	100%	90%	80%			80%		
COC(=O)[C@@H](C)Oc1nn(-c2cnccn2)c(-c2ccnc(F)c2)c1Br [Example I-34]	100%		100%	100%		80%		100%		80%	100%	100%	100%		80%	90%			100%
COC(=O)[C@@H](C)Oc1nn(-c2cnccn2)c(-c2cncc(F)c2)c1C#N [Example I-40]	80%		80%	100%	80%	90%		100%		80%	100%	100%	100%		90%		80%		
COC(=O)C(C)Oc1nn(-c2cnccn2)c(-c2cncc(F)c2)c1Br (racemic) [Example I-08]	100%	80%	100%			80%	100%	100%	90%	90%				90%	90%	90%		80%	
CCOC(=O)COc1nn(-c2cnccn2)c(-c2ccccc2)c1Br [Example I-01]	80%	80%	80%	100%	80%	90%	90%		90%	90%	100%	100%	100%	80%	80%	90%	80%	80%	
